{"source": "patent US20250018049A1", "about": "“COMPOUNDS FOR DEGRADING CYCLIN-DEPENDENT KINASE 2 VIA UBIQUITIN PROTEOSOME PATHWAY” (NIKANG THERAPEUTICS, INC., priority 2020, published 2025)", "key": {"CDK2 [1]": {"target": "T1, CDK2 (Homo sapiens, UniProt P24941)", "experiment": "NanoBRET CDK2 engagement assay", "assay_type": "cell-based", "design": "expressed in transfected cells", "details": "OVCAR3 cells with stable CDK2-Luciferase vector, 24 hours treatment", "description": "OVCAR3 cells with stable transfection of CDK2-Luciferase vector were seeded into 96-well plate at a density of 20,000 cells per well, 50 μL Opti-MEM medium supplemented with 1% FBS. Following morning, cells were treated with compounds of the disclosure, with starting concentration at 3 μM and ½ log dilution down to 0.3 nM for 24 hours at 37° C. DMSO treatment serves as control. Compound engagement was then measured using NanoBRE™ Kinase Kit from Promega (Part Number: CS1810C122, NanoBRET™ TE Kinase Kit #10, 1K) following manufacturer's instruction. For 24 hours treatment, tracer was added only for the last 2 hours. Briefly, 2.5 μL of complete 20× NanoBRET Tracer was added to the cells in suspension. Immediately prior to BRET measurements, prepare 3× Complete NanoBRET® Nano-Glo® Substrate in Opti-MEM without serum and phenol red. Without any delay, 25 μL per well of 3× Complete NanoBRET™ Nano-Glo® Substrate for a 96-well plate was added and mixed well. Signal was then read on a CLARIOstar® plate reader (measure donor emission (e.g., 450 nm) and acceptor emission (e.g., 610 nm or 630 nm) using a NanoBRET™-compatible luminometer. Target engagement was calculated with DMSO treatment as 100% signal, and IC50 was calculated by GraphPad Prism 9."}, "CDK2 [2]": {"target": "T1, CDK2", "experiment": "Phospho-Rb HTRF measurement in OVCAR3 cells (inhibition of CDK2)", "assay_type": "cell-based", "design": "High-Throughput Measurement of Cellular Endogenous CDK2; endogenous in cells; host or cells: OVCAR3", "details": "pRB(S807/811) assay, 24 h compound treatment", "description": "Phosphorylation of RB protein at S780 and S807/811 were measured using HTRF phospho-RB cellular kits (Cat #64RBS780PEG and 64RBS807PEG) from Cisbio.\nOn Day 1, OVCAR3 or KYSE520 cells were seeded into 96-well tissue-culture treated plates at 20,000 cells/well in 200 μL and incubated overnight at 37° C. in CO2 atmosphere. On Day 2, the cells were treated with test compounds at concentrations from 0.3 to 10,000 nM using HP D300 digital dispenser. Twenty-four hours after compound treatment, cell culture media was removed by flicking the plate and tapping the plate against clean paper towel. Immediately 30 μL 1× lysis buffer was supplemented from the kit and the plate was incubated at room temperature on shaker for 30 min. After homogenization by pipetting up and down, 8 μL cell lysate from 96-well cell culture plate was transferred to 384-well small volume white detection plate. 2 μL premixed detection solution was added and the plate was covered with sealer. To prepare the detection solution, d2 conjugated-phospho-RB antibody and Eu-cryptate conjugated phosphor-RB antibody were diluted into detection buffer following manufacturer's instruction. Detection plates were incubated for 4 h at room temperature and read on ClarioStar (BMG Labtech) in TR-FRET mode (665 nM and 620 nM). The TR-FRET ratio (665 nM/620 nM) was plotted against the compound concentration and normalized to DMSO controls. Half maximal inhibition concentration (IC50) values are calculated with a four-parameter logistic fit using GraphPad Prism (version 8; La Jolla, CA)."}}}
{"molecule": "O=C1CCC(N2C(=O)c3cccc(NCCOCCOCCNS(=O)(=O)N4CCC(Nc5ncc6ccc(=O)n(C7CCCC7)c6n5)CC4)c3C2=O)C(=O)N1", "note": "(centres unmarked) [Compound 9, 4-((8-cyclopentyl-7-oxo-7,8-dihydropyrido[2,3-d]-pyrimidin-2-yl)amino)-N-(2-(2-(2-((2-(2,6-dioxopiperidin-3-yl)-1,3-dioxoisoindolin-4-yl)-amino)ethoxy)ethoxy)ethyl)piperidine-1-sulfonamide]", "values": [{"measurement": "IC50", "setting": "CDK2 [1]", "value": 675, "unit": "nM"}, {"measurement": "IC50", "setting": "CDK2 [2]", "value": 1810, "unit": "nM"}]}
{"molecule": "CN(CCCOCCCc1cccc2c1C(=O)N(C1CCC(=O)NC1=O)C2=O)S(=O)(=O)N1CCC(Nc2ncc3ccc(=O)n(C4CCCC4)c3n2)CC1", "note": "(centres unmarked) [Compound 10, 4-((8-cyclopentyl-7-oxo-7,8-dihydropyrido[2,3-d]-pyrimidin-2-yl)amino)-N-(3-(3-(2-(2,6-dioxo-piperidin-3-yl)-1,3-dioxoisoindolin-4-yl)-propoxy)propyl)-N-methylpiperidine-1-sulfonamide]", "values": [{"measurement": "IC50", "setting": "CDK2 [1]", "value": 791, "unit": "nM"}, {"measurement": "IC50", "setting": "CDK2 [2]", "value": 3790, "unit": "nM"}]}
{"molecule": "O=C1CCC(N2C(=O)c3cccc(CCCOCCOCCNS(=O)(=O)N4CCC(Nc5ncc6ccc(=O)n(C7CCCC7)c6n5)CC4)c3C2=O)C(=O)N1", "note": "(centres unmarked) [Compound 11, 4-((8-cyclopentyl-7-oxo-7,8-dihydropyrido[2,3-d]pyrimidin-2-yl)amino)-N-(2-(2-(3-(2-(2,6-dioxopiperidin-3-yl)-1,3-dioxoisoindolin-4-yl)-propoxy)ethoxy)ethyl)piperidine-1-sulfonamide]", "values": [{"measurement": "IC50", "setting": "CDK2 [1]", "value": 499, "unit": "nM"}, {"measurement": "IC50", "setting": "CDK2 [2]", "value": 2060, "unit": "nM"}]}
{"molecule": "O=C1CCC(N2C(=O)c3ccc(N4CC(Oc5cccc(S(=O)(=O)N6CCC(Nc7ncc8ccc(=O)n(C9CCCC9)c8n7)CC6)c5)C4)cc3C2=O)C(=O)N1", "note": "(centres unmarked) [Compound 12, 5-(3-(3-((4-((8-cyclopentyl-7-oxo-7,8-dihydro-pyrido[2,3-d]pyrimidin-2-yl)amino)piperidin-1-yl)sulfonyl)phenoxy)azetidin-1-yl)-2-(2,6-dioxopiperidin-3-yl)isoindoline-1,3-dione]", "values": [{"measurement": "IC50", "setting": "CDK2 [1]", "value": 4780, "unit": "nM"}, {"measurement": "IC50", "setting": "CDK2 [2]", "value": 697, "unit": "nM"}]}
{"molecule": "Cn1c(=O)n(C2CCC(=O)NC2=O)c2cccc(C#CCOC3CCN(S(=O)(=O)N4CCC(Nc5ncc6ccc(=O)n(C7CCCC7)c6n5)CC4)CC3)c21", "note": "(centres unmarked) [Compound 14, 3-(4-(3-((1-((4-((8-cyclopentyl-7-oxo-7,8-dihydropyrido[2,3-d]pyrimidin-2-yl)amino)-piperidin-1-yl)sulfonyl)piperidin-4-yl)oxy)prop-1-yn-1-yl)-3-methyl-2-oxo-2,3-dihydro-1H-benzo[d]imidazol-1-yl)piperidine-2,6-dione]", "values": [{"measurement": "IC50", "setting": "CDK2 [1]", "value": 668, "unit": "nM"}, {"measurement": "IC50", "setting": "CDK2 [2]", "value": 633, "unit": "nM"}]}
{"molecule": "CN(C1CCC(Nc2cccc3c2C(=O)N(C2CCC(=O)NC2=O)C3=O)CC1)S(=O)(=O)N1CCC(Nc2ncc3ccc(=O)n(C4CCCC4)c3n2)CC1", "note": "(centres unmarked) [Compound 15, 4-((8-cyclopentyl-7-oxo-7,8-dihydropyrido[2,3-d]pyrimidin-2-yl)amino)-N-(4-((2-(2,6-dioxo-piperidin-3-yl)-1,3-dioxoisoindolin-4-yl)amino)-cyclohexyl)-N-methylpiperidine-1-sulfonamide]", "values": [{"measurement": "IC50", "setting": "CDK2 [1]", "value": 356, "unit": "nM"}, {"measurement": "IC50", "setting": "CDK2 [2]", "value": 2020, "unit": "nM"}]}
{"molecule": "O=C1CCC(N2C(=O)c3ccc(CN4CC(Oc5cccc(S(=O)(=O)N6CCC(Nc7ncc8ccc(=O)n(C9CCCC9)c8n7)CC6)c5)C4)cc3C2=O)C(=O)N1", "note": "(centres unmarked) [Compound 17, 5-((3-(3-((4-((8-cyclopentyl-7-oxo-7,8-dihydro-pyrido[2,3-d]pyrimidin-2-yl)amino)piperidin-1-yl)sulfonyl)phenoxy)azetidin-1-yl)methyl)-2-(2,6-dioxopiperidin-3-yl)isoindoline-1,3-dione]", "values": [{"measurement": "IC50", "setting": "CDK2 [1]", "value": 450, "unit": "nM"}, {"measurement": "IC50", "setting": "CDK2 [2]", "value": 245, "unit": "nM"}]}
{"molecule": "Cn1c(=O)n(C2CCC(=O)NC2=O)c2cccc(CCCOCCNS(=O)(=O)N3CCC(Nc4ncc5ccc(=O)n(C6CCCC6)c5n4)CC3)c21", "note": "(centres unmarked) [Compound 18, 4-((8-cyclopentyl-7-oxo-7,8-dihydropyrido[2,3-d]pyrimidin-2-yl)amino)-N-(2-(3-(1-(2,6-dioxopiperidin-3-yl)-3-methyl-2-oxo-2,3-dihydro-1H-benzo[d]imidazol-4-yl)propoxy)-ethyl)piperidine-1-sulfonamide]", "values": [{"measurement": "IC50", "setting": "CDK2 [1]", "value": 188, "unit": "nM"}, {"measurement": "IC50", "setting": "CDK2 [2]", "value": 700, "unit": "nM"}]}
{"molecule": "CN(CCCOCCCc1cccc2c1n(C)c(=O)n2C1CCC(=O)NC1=O)S(=O)(=O)N1CCC(Nc2ncc3ccc(=O)n(C4CCCC4)c3n2)CC1", "note": "(centres unmarked) [Compound 19, 4-((8-cyclopentyl-7-oxo-7,8-dihydropyrido[2,3-d]pyrimidin-2-yl)amino)-N-(3-(3-(1-(2,6-dioxo-piperidin-3-yl)-3-methyl-2-oxo-2,3-dihydro-1H-benzo[d]imidazol-4-yl)propoxy)propyl)-N-methylpiperidine-1-sulfonamide]", "values": [{"measurement": "IC50", "setting": "CDK2 [1]", "value": 253, "unit": "nM"}, {"measurement": "IC50", "setting": "CDK2 [2]", "value": 707, "unit": "nM"}]}
{"molecule": "O=C1CCC(N2C(=O)c3cccc(NCCOCCOCCOCCNCCCS(=O)(=O)N4CCC(Nc5ncc6ccc(=O)n(C7CCCC7)c6n5)CC4)c3C2=O)C(=O)N1", "note": "(centres unmarked) [Compound 25, 4-((15-((4-((8-cyclopentyl-7-oxo-7,8-dihydro-pyrido[2,3-d]pyrimidin-2-yl)amino)piperidin-1-yl)sulfonyl)-3,6,9-trioxa-12-azapentadecyl)-amino)-2-(2,6-dioxopiperidin-3-yl)isoindoline-1,3-dione]", "values": [{"measurement": "IC50", "setting": "CDK2 [2]", "value": 1070, "unit": "nM"}]}
{"molecule": "O=C1CCC(N2C(=O)c3cccc(NC(=O)COCCOCCOCCOCCNS(=O)(=O)N4CCC(Nc5ncc6ccc(=O)n(C7CCCC7)c6n5)CC4)c3C2=O)C(=O)N1", "note": "(centres unmarked) [Compound 26, 14-((4-((8-cyclopentyl-7-oxo-7,8-dihydro-pyrido[2,3-d]pyrimidin-2-yl)amino)piperidine)-1-sulfonamido)-N-(2-(2,6-dioxopiperidin-3-yl)-1,3-dioxoisoindolin-4-yl)-3,6,9,12-tetraoxatetradecan-amide]", "values": [{"measurement": "IC50", "setting": "CDK2 [2]", "value": 6090, "unit": "nM"}]}
{"molecule": "O=C1CCC(N2Cc3cc(N4CCC(Oc5cccc(S(=O)(=O)N6CCC(Nc7ncc8ccc(=O)n(C9CCCC9)c8n7)CC6)c5)CC4)ccc3C2=O)C(=O)N1", "note": "(centres unmarked) [Compound 33, 3-(5-(4-(3-((4-((8-cyclopentyl-7-oxo-7,8-dihydro-pyrido[2,3-d]pyrimidin-2-yl)amino)piperidin-1-yl)sulfonyl)phenoxy)piperidin-1-yl)-1-oxoiso-indolin-2-yl)piperidine-2,6-dione]", "values": [{"measurement": "IC50", "setting": "CDK2 [2]", "value": 313, "unit": "nM"}]}
{"molecule": "CC1(O)CCCC1n1c(=O)ccc2cnc(NC3CCN(S(=O)(=O)c4cccc(CN5CCN(c6cc7c(cc6F)C(=O)N(C6CCC(=O)NC6=O)C7=O)CC5)c4)CC3)nc21", "note": "(centres unmarked) [Compound 44, 2-(2,6-dioxopiperidin-3-yl)-5-fluoro-6-(4-(3-((4-((8-(2-hydroxy-2-methylcyclopentyl)-7-oxo-7,8-dihydropyrido[2,3-d]pyrimidin-2-yl)amino)-piperidin-1-yl)sulfonyl)benzyl)piperazin-1-yl)-isoindoline-1,3-dione]", "values": [{"measurement": "IC50", "setting": "CDK2 [2]", "value": 405, "unit": "nM"}]}
{"molecule": "O=C1CCC(N2Cc3cc(N4CC(Oc5cccc(S(=O)(=O)N6CCC(Nc7ncc8ccc(=O)n(C9CCCC9)c8n7)CC6)c5)C4)ccc3C2=O)C(=O)N1", "note": "(centres unmarked) [Compound 74, 3-(5-(3-(3-((4-((8-cyclopentyl-7-oxo-7,8-dihydro-pyrido[2,3-d]pyrimidin-2-yl)amino)piperidin-1-yl)sulfonyl)phenoxy)azetidin-1-yl)-1-oxoisoindolin-2-yl)piperidine-2,6-dione]", "values": [{"measurement": "IC50", "setting": "CDK2 [2]", "value": 100, "unit": "nM"}]}
